Measurements from US7611848B2, “Method for selecting allosteric regulators of class III G protein-coupled receptors” (Centre National de la Recherche Scientifique (CNRS), priority 2003, dated 2009).

Assays:
[1] = tested on: deltaGB2s (truncated GABAB2 (GB2) subunit); assay: IP production in HEK293 cells transiently expressing deltaGB2s receptor and chimeric G protein Gqi9; format: cell-based; details: deltaGB2s with Gqi9, FIG. 9
Text: FIG. 9: Graph representing the dose-effect of CGP7930 on the deltaGB2s receptor, in HEK293 cells transiently expressing this receptor, and also the chimeric G protein Gqi9 that allows coupling of this receptor to the phospholipase C activation pathway. The results correspond to the ratio of the production of IP to the radioactivity remaining in the membranes.
The protocol described in section A.I. above, concerning the mGlu5 receptor, was applied mutatis mutandis to the mGlu1 and mGlu2 receptors and to the GB2 subunit.
For this, GPCRs-III for which positive allosteric modulators have been described were chosen: the mGlu1 receptor (Ro01-6128) (Knoflach et al., 2001), the mGlu2 receptor (LY487379) (Schaffhauser et al., 2003), and the GABAB2 (GB2) subunit of the GABAB receptor (CGP7930) (Urwyler et al., 2001). The receptors truncated with respect to their extracellular and intracellular portions are named, respectively, delta1s, delta2s and deltaGB2s and were expressed transiently in HEK293 cells.
In order to allow the delta2s and deltaGB2s receptors to activate the phospholipase C, and therefore to increase the production of inositol phosphates, these two receptors were coexpressed with the chimeric G protein Gqi9 as described above (Gomeza et al., 1996; Franek et al., 1999).

[2] = biological target: heterodimeric receptor GABAB (GB1 and GB2 subunits) (Homo sapiens, UniProt O75899); details: literature (Urwyler et al., 2001); cited from earlier work
wild-type mGlu5 receptor = biological target: T1, wild-type mGlu5 receptor (Rattus norvegicus, UniProt P31424); assay: IP production in HEK293 cells transiently expressing wild-type mGlu5 receptor; format: cell-based
T1 construct: expressed in transfected cells; host or cells: HEK293
T1 sequence (P31424 21-1171 isoform P31424-2 limits assumed): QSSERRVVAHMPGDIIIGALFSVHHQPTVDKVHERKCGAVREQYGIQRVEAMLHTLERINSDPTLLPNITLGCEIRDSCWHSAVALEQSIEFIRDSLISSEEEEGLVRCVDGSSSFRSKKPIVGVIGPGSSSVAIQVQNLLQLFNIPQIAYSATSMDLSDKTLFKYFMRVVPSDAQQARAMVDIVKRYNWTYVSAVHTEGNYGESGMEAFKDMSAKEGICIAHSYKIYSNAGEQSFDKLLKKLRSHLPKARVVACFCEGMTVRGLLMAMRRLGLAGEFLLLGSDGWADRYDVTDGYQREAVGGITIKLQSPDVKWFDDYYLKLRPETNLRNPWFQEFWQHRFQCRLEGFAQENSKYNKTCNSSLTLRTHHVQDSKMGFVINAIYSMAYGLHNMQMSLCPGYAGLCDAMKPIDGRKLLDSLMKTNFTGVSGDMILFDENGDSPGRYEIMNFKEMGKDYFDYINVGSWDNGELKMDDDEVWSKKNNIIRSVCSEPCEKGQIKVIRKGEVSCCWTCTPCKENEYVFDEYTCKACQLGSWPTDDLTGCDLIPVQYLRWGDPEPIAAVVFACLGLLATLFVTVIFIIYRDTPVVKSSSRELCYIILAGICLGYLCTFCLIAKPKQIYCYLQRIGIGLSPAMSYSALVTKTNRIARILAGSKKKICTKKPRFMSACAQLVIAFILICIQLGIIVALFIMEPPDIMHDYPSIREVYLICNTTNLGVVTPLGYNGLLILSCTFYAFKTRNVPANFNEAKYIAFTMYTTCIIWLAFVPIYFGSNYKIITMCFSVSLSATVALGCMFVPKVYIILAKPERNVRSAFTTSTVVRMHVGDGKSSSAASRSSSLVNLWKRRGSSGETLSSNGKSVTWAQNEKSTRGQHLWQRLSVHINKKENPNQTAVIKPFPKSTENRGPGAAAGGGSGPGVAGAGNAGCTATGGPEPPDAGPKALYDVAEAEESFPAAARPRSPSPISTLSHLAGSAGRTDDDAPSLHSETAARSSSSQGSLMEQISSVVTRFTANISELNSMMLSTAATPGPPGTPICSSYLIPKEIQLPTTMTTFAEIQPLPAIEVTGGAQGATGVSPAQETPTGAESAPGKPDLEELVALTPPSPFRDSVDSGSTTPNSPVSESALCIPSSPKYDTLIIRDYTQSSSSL
Text: (§1) The results correspond to the ratio of the production of IP to the radioactivity remaining in the membranes.
(§2) The results correspond to the ratio of the production of IP to the radioactivity remaining in the membranes, and are expressed as percentage baseline production of IP.
(§3) In the context of the invention, the measurement of the level of activity of the GPCR-III-A can be carried out by any conventional method known to those skilled in the art that is suitable for measuring the activity of a GPCR-III. Among these methods, mention may be made, by way of example, of measurement of the level of production of inositol phosphates (IPs; see Experimental Section, below; Berridge, 1983; Brandish et al., 2003), measurement of […] (Milligan, 2003), measurement of intracellular calcium signals using fluorescent markers such as Fluo3 or Fluo4, and measurement of cAMP production, the latter two methods being conventional and well known to those skilled in the art.
DFB has recently been described as a positive allosteric regulator of the mGlu5 receptor (Williams et al., 2002). In order to test its effect on the mGlu5ΔS protein, DFB was synthesized by F. Acher (UMR University R. Descartes, rue des Saints Peres, Paris 5).
The data correspond to the mean±standard deviation of the mean of (n) experiments.

[3] = biological target: T2, mGlu5ΔS protein (heptahelical domain of the mGlu5 receptor) (Rattus norvegicus, UniProt P31424); assay: IP production in HEK293 cells transiently expressing truncated mGlu5ΔS protein; format: cell-based
T2 construct: between residue P568, located 11 residues before the first transmembrane domain, and residue L864; signal peptide of the mGlu5 receptor (N); expressed in transfected cells; host or cells: HEK293
T2 sequence (P31424 568-864, stated change not applied): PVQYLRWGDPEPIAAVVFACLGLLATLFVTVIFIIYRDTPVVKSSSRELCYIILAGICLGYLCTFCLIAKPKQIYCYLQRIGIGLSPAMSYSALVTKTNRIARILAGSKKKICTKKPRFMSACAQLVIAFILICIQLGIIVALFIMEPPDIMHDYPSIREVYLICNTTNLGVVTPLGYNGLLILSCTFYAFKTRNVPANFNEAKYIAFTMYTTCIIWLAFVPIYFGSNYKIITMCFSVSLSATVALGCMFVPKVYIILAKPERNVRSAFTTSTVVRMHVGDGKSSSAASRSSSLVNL
Text: as §2, §1, §3
The portion of the cDNA of the mGlu5 receptor encoding its heptahelical domain between residue P568, located 11 residues before the first transmembrane domain, and residue L864, located 37 residues after the 7th transmembrane domain, was amplified by PCR (primers SEQ ID No.1 and SEQ ID No.2), including, respectively, the restriction sites of the Mlu-I and Xba-I enzymes at the 5′ and 3′ ends (FIG. 2). The PCR product thus obtained was digested with the Mlu-I and Xba-I enzymes, subcloned into the vector pRK5-NHA (FIG. 2), and digested with the same enzymes. The plasmid pRK5-NHA was obtained from the plasmid pRKG5a-NHA (Ango et al., 1999), by replacing the sequence encoding the mGlu5 receptor, from the end of the HA tag to the XbaI restriction site, with an MluI restriction site.

mGlu2 receptor = mGlu2 receptor (Homo sapiens, UniProt Q14416); details: literature; cited from earlier work
mGlu2 receptor, sequence (Q14416 19-872): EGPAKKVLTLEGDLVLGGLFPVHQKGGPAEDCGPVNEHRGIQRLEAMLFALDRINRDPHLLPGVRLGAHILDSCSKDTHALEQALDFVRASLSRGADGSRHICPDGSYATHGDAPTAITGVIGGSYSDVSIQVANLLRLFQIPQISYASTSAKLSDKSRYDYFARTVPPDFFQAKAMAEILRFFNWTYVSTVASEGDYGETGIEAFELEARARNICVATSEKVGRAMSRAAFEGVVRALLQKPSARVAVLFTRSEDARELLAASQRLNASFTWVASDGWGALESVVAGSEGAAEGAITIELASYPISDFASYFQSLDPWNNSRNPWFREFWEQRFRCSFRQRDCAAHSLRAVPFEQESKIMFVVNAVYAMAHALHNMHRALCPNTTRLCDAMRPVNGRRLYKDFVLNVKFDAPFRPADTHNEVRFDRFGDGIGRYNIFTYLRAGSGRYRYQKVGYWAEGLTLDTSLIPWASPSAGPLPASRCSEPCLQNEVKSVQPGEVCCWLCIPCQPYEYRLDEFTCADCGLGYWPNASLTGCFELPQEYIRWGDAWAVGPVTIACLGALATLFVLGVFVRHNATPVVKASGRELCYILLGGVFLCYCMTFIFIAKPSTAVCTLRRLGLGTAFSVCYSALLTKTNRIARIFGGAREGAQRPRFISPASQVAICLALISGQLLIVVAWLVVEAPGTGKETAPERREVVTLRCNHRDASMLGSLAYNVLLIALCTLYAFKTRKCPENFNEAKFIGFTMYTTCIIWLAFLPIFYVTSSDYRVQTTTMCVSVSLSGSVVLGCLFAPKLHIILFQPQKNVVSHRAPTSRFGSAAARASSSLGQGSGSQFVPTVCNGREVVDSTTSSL

mGlu1 receptor = mGlu1 receptor (Rattus norvegicus, UniProt P23385); details: literature; cited from earlier work
mGlu1 receptor, sequence (P23385 19-1199): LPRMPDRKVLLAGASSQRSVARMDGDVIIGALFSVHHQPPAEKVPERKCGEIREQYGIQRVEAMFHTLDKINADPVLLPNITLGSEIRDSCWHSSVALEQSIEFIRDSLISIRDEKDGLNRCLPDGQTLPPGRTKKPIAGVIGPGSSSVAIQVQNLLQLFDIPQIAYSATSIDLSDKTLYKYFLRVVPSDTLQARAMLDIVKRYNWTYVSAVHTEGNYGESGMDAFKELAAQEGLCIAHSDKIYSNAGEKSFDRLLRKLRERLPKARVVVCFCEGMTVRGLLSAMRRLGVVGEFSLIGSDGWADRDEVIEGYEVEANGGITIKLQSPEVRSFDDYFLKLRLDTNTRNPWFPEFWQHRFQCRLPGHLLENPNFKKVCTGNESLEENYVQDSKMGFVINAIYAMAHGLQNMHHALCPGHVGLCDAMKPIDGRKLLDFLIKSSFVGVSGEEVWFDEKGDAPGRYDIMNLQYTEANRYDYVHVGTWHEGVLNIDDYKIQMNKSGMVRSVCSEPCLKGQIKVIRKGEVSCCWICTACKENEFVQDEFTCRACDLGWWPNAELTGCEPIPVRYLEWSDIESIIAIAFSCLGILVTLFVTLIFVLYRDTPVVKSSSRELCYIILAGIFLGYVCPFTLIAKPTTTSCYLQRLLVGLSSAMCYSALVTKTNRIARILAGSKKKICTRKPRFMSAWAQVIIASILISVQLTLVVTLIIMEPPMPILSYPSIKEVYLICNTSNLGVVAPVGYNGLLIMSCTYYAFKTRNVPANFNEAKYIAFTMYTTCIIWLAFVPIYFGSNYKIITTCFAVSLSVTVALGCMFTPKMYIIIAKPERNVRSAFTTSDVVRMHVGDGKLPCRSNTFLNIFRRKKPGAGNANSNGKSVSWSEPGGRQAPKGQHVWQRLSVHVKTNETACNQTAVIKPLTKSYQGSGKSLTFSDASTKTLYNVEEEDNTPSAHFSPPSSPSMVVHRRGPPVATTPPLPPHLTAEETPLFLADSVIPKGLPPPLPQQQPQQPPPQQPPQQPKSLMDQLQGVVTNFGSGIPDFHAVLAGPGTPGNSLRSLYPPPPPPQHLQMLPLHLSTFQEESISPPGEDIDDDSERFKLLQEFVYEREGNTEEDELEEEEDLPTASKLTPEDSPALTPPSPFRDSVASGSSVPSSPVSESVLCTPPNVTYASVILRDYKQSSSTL

CC(C)(CO)Cc1cc(C(C)(C)C)c(O)c(C(C)(C)C)c1 [CGP7930, 2,6-Di-tert.-butyl-4-4-(3-hydroxy-2,2-dimethyl-propyl)-phenol]
stimulation of truncated construct (IP production) [1]: strongly stimulates
agonist activity on heterodimeric GABAB receptor [2]: weak agonist activity

Fc1cccc(/C=N/N=C/c2cccc(F)c2)c1 [DFB]
activation of the wild-type mGlu5 receptor by compound alone (wild-type mGlu5 receptor; glutamate kept as low as possible by coexpression of EAAC1 and addition of GPT with pyruvate (2 mM)): did not significantly activate
EC50 (wild-type mGlu5 receptor; in the presence of a low concentration of agonist, read-out: EC50 for dose-dependent increase of IP production): 1.81 ± 1.04 µM
effect on IP production of compound alone (agonist behaviour) ([3]; cells expressing mGlu5ΔS): stimulated IP production
EC50 ([3]; compound alone on mGlu5ΔS, n=3, read-out: EC50 for stimulation of IP production): 8 ± 3 µM

COc1ccccc1Oc1ccc(N(Cc2cccnc2)S(=O)(=O)CC(F)(F)F)cc1 [LY487379]
agonist effect when applied alone (mGlu2 receptor): no agonist effect
potentiation of the effect of agonists (mGlu2 receptor): potentiate the effect of agonists

Cc1cccc(C#Cc2ccccc2)n1 [MPEP, 2-Methyl-6-(phenylethynyl)pyridine]
inhibition of the effect of DFB (wild-type mGlu5 receptor; wild-type receptor, data not shown): inhibited
inhibition of the effect of DFB ([3]; mGlu5ΔS cells treated with 300 μM of DFB (FIG. 6B)): inhibited

CCOC(=O)NC(=O)C(c1ccccc1)c1ccccc1 [Ro01-6128]
agonist effect when applied alone (mGlu1 receptor): no agonist effect
potentiation of the effect of agonists (mGlu1 receptor): potentiate the effect of agonists

glutamate
effect of glutamate on IP production (wild-type mGlu5 receptor; 100 μM glutamate (FIG. 3), wild-type mGlu5): stimulated IP production
